Drawing on patent publication US10736897B2, “Compounds and methods of use thereof for treatment of cancer” (Araxes Pharma LLC, priority 2017, dated 2020), this text covers Binding % for nine compounds.

The structures appear in SMILES notation.

This experiment deals with T1, KRAS G12C 1-169, his-tagged protein, GDP-loaded (Homo sapiens, UniProt P01116, G12C).
T1 construct: KRAS G12C 1-169, his-tagged protein, GDP-loaded; His tag
Put plainly: Biochemical assay: covalent modification of KRAS G12C measured by mass spectrometry (RapidFire/TOF or Q-Exactive). Conditions: Modification Activity; modification percentage from deconvoluted MS peak intensities; compound concentration and incubation time for Table 2 not stated. In kind it is binding. The procedure:
Test compounds are prepared as 10 mM stock solutions in DMSO (Fisher cat # BP-231-100). KRAS G12C 1-169, his-tagged protein, GDP-loaded is diluted to 2 μM or 0.5 μM in buffer (20 mM Hepes, 150 mM NaCl, 1 mM MgCl2). Compounds are tested for activity as follows:
Compounds are diluted to 50× final test concentration in DMSO in 96-well storage plates. Compound stock solutions are vortexed before use and observed carefully for any sign of precipitation. Dilutions are as follow: • For 100 μM final compound concentration, compounds are diluted to 5000 μM (5 μL 10 mM compound stock+5 μL DMSO and mixed well by pipetting. • For 30 μM final compound concentration, compounds are diluted to 1500 μM (3 μL 10 mM compound stock+17 μL DMSO) and mixed well by pipetting. • For 10 μM final compound concentration, compounds are diluted to 500 μM (2 μL 10 mM compound stock+38 μL DMSO) and mixed well by pipetting. 49 μL of the stock protein solution is added to each well of a 96-well PCR plate (Fisher cat #1423027). 1 μl of the diluted 50× compounds are added to appropriate wells in the PCR plate using 12-channel pipettor. Reactions are mixed carefully and thoroughly by pipetting up/down with a 200 μL multi-channel pipettor. The plate is sealed well with aluminum plate seal, and stored in drawer at room temperature for 10 minutes, 30 minutes, 2 hours or 24 hours. 5 μL of 2% formic acid (Fisher cat # A117) in de-ionized H2O is then added to each well followed by mixing with a pipette. The plate is then resealed with aluminum seal and stored on dry ice until analyzed as described below.
The above described assays are analyzed by mass spectrometry according to one of the following two procedures:
The MS instrument is set to positive polarity, 2 GHz resolution, and low mass (1700) mode and allowed to equilibrate for 30 minutes. The instrument is then calibrated, switched to acquisition mode and the appropriate method loaded.
After another 30 minute equilibration time, a blank batch (i.e., buffer) is run to ensure equipment is operating properly. The samples are thawed at 37° C. for 10 minutes, briefly centrifuged, and transfer to the bench top. Wells A1 and H12 are spiked with 1 μL 500 μM internal standard peptide, and the plates centrifuged at 2000×g for 5 minutes. The method is then run and masses of each individual well recorded.
The masses (for which integration data is desired) for each well are pasted into the platemap and exported from the analysis. Masses for the internal standards are exported as well. The data at 50 ppm is extracted for the +19 charge state, and identity of well A1 is assigned using the internal standard spike and integrated. Peak data is exported as a TOF list and the above steps are repeated individually, for the +20, 21, 22, 23, 24, and 25 charge states.
The masses and peak intensities of KRAS G12C protein species are measured using a Dionex RSLCnano system (Thermo Scientific) connected to a Q Exactive Plus mass spectrometer (Thermo Scientific).
[…] of sample is each loaded onto a Aeris™ 3.6 μm WIDEPORE C4 200 Å, LC Column 50×2.1 mm column maintained at 40° C. at a flow rate of 600 μL/min with […] (0.1% formic acid in acetonitrile). The liquid chromatography conditions are 20% solvent B for 1 minute, 20% to 60% solvent B for 1.5 minutes, 60% to 90% solvent for 0.5 minute, 90% solvent B for 0.2 minute, 90% to 20% solvent B for 0.2 minute, and then equilibrated for 1.6 minute before the following sample injection. The flow rate is maintained at 600 μL/min throughout the sample analysis.
The mass spectrometer is operated in profile mode at a resolution of 17500, 5 microscans, using 50 msec max injection time and an AGC target of 1×10^6, and a full mass range from 800-1850 m/z is recorded. The HCD trapping gas is optimized for maximum sensitivity for intact proteins. […]

Consider `C=CC(=O)N1CCN(c2cc(C(F)(F)F)nc3c(F)c(-c4c(C)ccc5cnn(C)c45)c(Cl)cc23)CC1` [Compound 23, 1-(4-(6-chlroo-7-(1,6-dimethyl-1H-indazol-7-yl)-8-fluoro-2-(trifluoromethyl)quino-lin-4-yl)piperazin-1-yl)prop-2-en-1-one], for which the Binding % result is “+ (+ indicates binding activity greater than 0% and up to 50%)”.

Take `C=CC(=O)N1CCN(c2c(C#N)cnc3c(F)c(-c4c(C)ccc5cnn(C)c45)c(Cl)cc23)C[C@H]1C` [Compound 24, 4-((R)-4-acryloyl-3-methylpiperazin-1-yl)-6-chloro-7-(1,6-dimethyl-1H-indazol-7-yl)-8-fluoroquinoline-3-carbonitrile]: the Binding % entry is “+++ (+++ indicates binding activity greater than 85%)”.

Turning to `C=CC(=O)N1CCN(c2cc(C(F)(F)F)nc3c(F)c(-c4c(C)ccc5[nH]nc(C)c45)c(Cl)cc23)CC1` [Compound 25, 1-(4-(6-chloro-7-(3,5-dimethyl-1H-indazol-4-yl)-8-fluoro-2-(trifluoromethyl)quino-lin-4-yl)piperazin-1-yl)prop-2-en-1-one], the Binding % result was “+ (+ indicates binding activity greater than 0% and up to 50%)”.

Take `C=CC(=O)N1CCN(c2c(C#N)cnc3c(F)c(-c4c(C)ccc5cnn(C6CC6)c45)c(Cl)cc23)C[C@H]1C` [Compound 26, 4-((R)-4-acryloyl-3-methylpiperazin-1-yl)-6-chloro-7-(1-cyclopropyl-6-methyl-1H-indazol-7-yl)-8-fluoroquinoline-3-carbonitrile]: the Binding % entry was “+++ (+++ indicates binding activity greater than 85%)”.

On to `C=CC(=O)N1CCN(c2c(C#N)c(OCCCN(C)C)nc3c(F)c(-c4c(C)ccc5cnn(C)c45)c(Cl)cc23)CC1` [Compound 27, 4-(4-acryloylpiperazin-1-yl)-6-chloro-7-(1,6-dimethyl-1H-indazol-7-yl)-2-(3-(dimethylamino)pro-poxy)-8-fluoroquinoline-3-carbonitrile], for which the Binding % result is listed as “+++ (+++ indicates binding activity greater than 85%)”.

`C=CC(=O)N1CCN(c2cc(C#N)nc3c(F)c(-c4c(C)ccc5cnn(C)c45)c(Cl)cc23)CC1` [Compound 28, 4-(4-acryloylpiperazin-1-yl)-6-chloro-7-(1,6-dimethyl-1H-indazol-7-yl)-8-fluoroquinoline-2-carbonitrile]: the Binding % result is reported as “+++ (+++ indicates binding activity greater than 85%)”.

For the compound `C=CC(=O)N1CCN(c2cc(C#N)nc3c(F)c(-c4c(C)ccc5[nH]nc(C)c45)c(Cl)cc23)CC1` [Compound 29, 4-(4-acryloylpiperazin-1-yl)-6-chloro-7-(3,5-dimethyl-1H-indazol-4-yl)-8-fluoroquinoline-2-carbontrile], the Binding % entry is “++ (++ indicates binding activity from 50 to 85%)”.

With `C=CC(=O)N1CCN(c2c(C#N)cnc3c(F)c(-c4c(C)ccc5[nH]nc(C)c45)c(Cl)cc23)CC1CC#N` (stereo not drawn) [Compound 30, 4-(4-acryloyl-3-(cyanomethyl)piperazin-1-yl)-6-chloro-7-(3,5-dimethyl-1H-indazol-4-yl)-8-fluoroquinoline-3-carbonitrile], the Binding % entry is “+++ (+++ indicates binding activity greater than 85%)”.

Turning to `C=CC(=O)N1CCN(c2ncnc3c(F)c(-c4c(C)ccc5[nH]nc(C)c45)c(Cl)cc23)CC1CC#N` (stereo not drawn) [Compound 31, 2-(1-acryloyl-4-(6-chloro-7-(3,5-dimethyl-1H-indazol-4-yl)-8-fluoroquinazolin-4-yl)piperazin-2-yl)acetonitrile], the Binding % result was “+++ (+++ indicates binding activity greater than 85%)”.
